Experimental data published in the supplement of paper PMC10307832.

How the values were obtained:
Test in all cases: relative viability (nuclei count vs DMSO), 5 days (fraction); higher = more cells survive
[1] = compound: NC1(c2ccc(-c3nc4ccn5c(=O)[nH]nc5c4cc3-c3ccccc3)cc2)CCC1 [MK-2206] + Nc1nc2[nH]cc(CCc3ccc(C(=O)N[C@@H](CCC(=O)O)C(=O)O)cc3)c2c(=O)[nH]1 [Pemetrexed] (partner 0.2 µM)
In short: (§1)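 Five library-drug doses in √10 steps were combined with a fixed anchor-drug dose, or a single drug was given alone, by pin tool to lung cancer cell lines in 1536-well plates the day after seeding. Nuclei were stained and counted after 5 days. Relative viability is the nuclei count in treated wells over that in vehicle wells, taken as the median of duplicate plates.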

[2] = compound: NC1(c2ccc(-c3nc4ccn5c(=O)[nH]nc5c4cc3-c3ccccc3)cc2)CCC1 [MK-2206] + COc1cccc2cc(-c3nc([C@H]4CC[C@H](C(=O)O)CC4)n4ncnc(N)c34)[nH]c12 [OSI-027] (partner 0.5 µM)
In short: as §1

[3] = compound: NC1(c2ccc(-c3nc4ccn5c(=O)[nH]nc5c4cc3-c3ccccc3)cc2)CCC1 [MK-2206] + CC1(C)CCC(c2ccc(Cl)cc2)=C(CN2CCN(c3ccc(C(=O)NS(=O)(=O)c4ccc(N[C@H](CCN5CCOCC5)CSc5ccccc5)c(S(=O)(=O)C(F)(F)F)c4)cc3)CC2)C1 [Navitoclax] (partner 0.5 µM)
In short: as §1

[4] = compound: NC1(c2ccc(-c3nc4ccn5c(=O)[nH]nc5c4cc3-c3ccccc3)cc2)CCC1 [MK-2206] + N=C(N)NC(=N)NCCc1ccccc1 [Phenformin] (partner 250 µM)
In short: as §1

[5] = compound: CS(=O)(=O)N1CCN(Cc2cc3nc(-c4cccc5[nH]ncc45)nc(N4CCOCC4)c3s2)CC1 [Pictilisib] + Cc1nc(Nc2ncc(C(=O)Nc3c(C)cccc3Cl)s2)cc(N2CCN(CCO)CC2)n1 [Dasatinib] (partner 0.075 µM)
In short: as §1

Row | Cell Line | relative viability ([1]; first compound 0.01 µM) | relative viability ([1]; first compound 0.03162 µM) | relative viability ([1]; first compound 0.3162 µM) | relative viability ([1]; first compound 1 µM) | relative viability ([2]; first compound 0.01 µM) | relative viability ([2]; first compound 0.3162 µM) | relative viability ([2]; first compound 1 µM) | relative viability ([3]; first compound 0.01 µM) | relative viability ([3]; first compound 0.03162 µM) | relative viability ([3]; first compound 0.3162 µM) | relative viability ([3]; first compound 1 µM) | relative viability ([4]; first compound 0.01 µM) | relative viability ([4]; first compound 0.3162 µM) | relative viability ([4]; first compound 1 µM) | relative viability ([5]; first compound 0.02 µM) | relative viability ([5]; first compound 0.06325 µM) | relative viability ([5]; first compound 0.6325 µM) | relative viability ([5]; first compound 2 µM) | relative viability ([2]; first compound 0.03162 µM) | relative viability ([4]; first compound 0.03162 µM)
1 | HCC-78 | 0.934 | 0.924 | 0.909 | 0.934 | 0.394 | 0.351 | 0.285 | 0.735 | 0.875 | 0.732 | 0.488 | 0.7 | 0.753 | 0.524 | 0.379 | 0.359 | 0.222 | 0.189 | – | –
2 | HCC-366 | 0.154 | 0.166 | 0.302 | 0.266 | 0.927 | 0.569 | 0.44 | 1.04 | 1.11 | 0.736 | 1.04 | 0.614 | 0.564 | 0.39 | 0.537 | 0.566 | 0.193 | 0.0747 | 0.962 | 0.686
3 | HCC-827 | 0.272 | 0.242 | 0.268 | 0.274 | 0.78 | 0.655 | 0.391 | 1.06 | 1.12 | 1.04 | 1.01 | 0.45 | 0.402 | 0.326 | 0.357 | 0.242 | 0.183 | 0.136 | 0.871 | 0.434
4 | HOP-62 | 0.381 | 0.272 | 0.273 | 0.375 | 0.808 | 0.74 | 0.828 | 0.909 | 1.24 | 1.02 | 1.1 | 0.62 | 0.701 | 0.699 | 0.627 | 0.573 | 0.43 | 0.26 | 0.808 | 0.725
5 | IA-LM | – | – | – | – | – | – | – | 0.724 | 0.835 | 0.801 | 0.669 | – | – | – | – | – | – | – | – | –
6 | LC-2-ad | 0.282 | 0.254 | 0.28 | 0.25 | 0.76 | 0.592 | 0.383 | 0.423 | 0.506 | 0.288 | 0.3 | 0.544 | 0.532 | 0.365 | 0.739 | 0.516 | 0.248 | 0.177 | 0.837 | 0.589
7 | LCLC-97TM1 | 0.186 | 0.138 | 0.146 | 0.189 | 0.698 | 0.249 | 0.361 | 0.522 | 0.499 | 0.404 | 0.361 | 0.431 | 0.315 | 0.384 | 0.8 | 0.919 | 0.781 | 0.602 | 0.498 | 0.48
8 | LCLC-103H | 0.441 | 0.435 | 0.485 | 0.442 | 0.476 | 0.445 | 0.408 | – | – | – | – | 0.304 | 0.351 | 0.314 | 0.457 | 0.547 | 0.367 | 0.142 | 0.459 | 0.321
9 | LK-2 | 0.265 | 0.309 | 0.246 | 0.252 | 0.179 | 0.181 | 0.151 | 0.837 | 0.938 | 0.684 | 0.61 | 0.302 | 0.315 | 0.174 | 0.278 | 0.324 | 0.185 | 0.185 | 0.199 | 0.543
10 | NCI-H358 | 0.169 | 0.154 | 0.186 | 0.162 | 0.819 | 0.531 | 0.487 | – | – | – | – | 0.338 | 0.328 | 0.412 | 0.147 | 0.148 | 0.123 | 0.0945 | 0.765 | 0.352
11 | NCI-H522 | 1.04 | 0.964 | 0.887 | 1 | 0.867 | 0.615 | 0.631 | – | – | – | – | 0.605 | 0.627 | 0.613 | 0.75 | 0.984 | 0.79 | 0.664 | 0.726 | 0.681
12 | NCI-H650 | 0.979 | 0.913 | 0.818 | 1.02 | 0.476 | 0.417 | 0.415 | – | – | – | – | 0.458 | 0.471 | 0.353 | 0.498 | 0.497 | 0.41 | 0.333 | 0.509 | 0.473
13 | NCI-H661 | 0.986 | 0.91 | 0.876 | 0.877 | 0.729 | 0.563 | 0.584 | – | – | – | – | 0.252 | 0.257 | 0.255 | 0.942 | 0.878 | 0.439 | 0.304 | 0.659 | 0.289
14 | NCI-H727 | – | – | – | – | 0.479 | 0.537 | 0.52 | 0.424 | 0.367 | 0.212 | 0.314 | 0.607 | 0.533 | 0.592 | 0.319 | 0.38 | 0.292 | 0.342 | 0.615 | 0.71
15 | NCI-H1299 | – | – | – | – | – | – | – | 1.09 | 1.05 | 1.06 | 1.05 | – | – | – | – | – | – | – | – | –
16 | NCI-H1563 | 0.746 | 0.771 | 0.697 | 0.744 | 0.756 | 0.626 | 0.6 | – | – | – | – | 0.625 | 0.606 | 0.616 | 0.431 | 0.39 | 0.356 | 0.316 | 0.727 | 0.601
17 | NCI-H1623 | – | – | – | – | 0.44 | 0.411 | 0.355 | – | – | – | – | 0.555 | 0.574 | 0.605 | 0.55 | 0.487 | 0.472 | 0.251 | 0.426 | 0.592
18 | NCI-H1648 | 0.719 | 0.651 | 0.691 | 0.786 | 0.256 | 0.279 | 0.251 | – | – | – | – | – | – | – | – | – | – | – | 0.246 | –
19 | NCI-H1703 | – | – | – | – | – | – | – | 1.15 | 0.961 | 0.621 | 0.776 | – | – | – | – | – | – | – | – | –
20 | NCI-H2342 | 0.663 | 0.782 | 0.675 | 0.738 | 0.649 | 0.555 | 0.484 | – | – | – | – | 0.657 | 0.542 | 0.417 | 0.263 | 0.305 | 0.289 | 0.267 | 0.614 | 0.594
21 | SW 900 | 0.494 | – | 0.497 | 0.491 | 0.728 | 0.416 | 0.481 | – | – | – | – | 0.656 | 0.451 | 0.538 | 0.577 | 0.547 | 0.264 | 0.255 | 0.542 | 0.71
